pIC50, pKi: −log10 of the molar value. Converted amounts (≈) assume the structure as drawn. Starred links: 1 amine or outer side, 2 acyl side, 3 side chain; linkers in the order of their positions; H or OH if unused. Non-standard residues stand in square brackets, D forms with d. Residues, ends and D or L forms follow the SMILES beside them. X2 = C[C@@H]1CC(O)O[C@H]1[C@H](C(=O)[*:2])N(C)[*:1]; X1 = C[C@@H]1CCO[C@H]1[C@H](C(=O)[*:2])N(C)[*:1]; NMeL = CN[C@@H](CC(C)C)C(=O)O; dNMeL = CN[C@H](CC(C)C)C(=O)O; dNMeV = CN[C@@H](C(=O)O)C(C)C; dNMeA = CN[C@H](C)C(=O)O
How the values were obtained:
[1] = biological target: T1, Human recombinant cyclophilin A (CypA) (Homo sapiens, UniProt P62937); assay: Protease-free PPIase assay, cyclophilin A; assay type: biochemical; settings: human recombinant CypA, 10 °C, SUC-AAPF-pNA substrate; read-out: CypA Protease-free PPIase Assay Ki
T1 construct: purchased Sigma C3805
Experimental: (§1) Protease-Free PPIase Assay The protease-free PPIase assay measures the rate of cis to trans conversion of a peptide substrate catalyzed by the enzyme cyclophilin A or D. Addition of a cyclophilin inhibitor (e.g., a test compound) slows the catalyzed rate and a Ki value is obtained. 35 mM HEPES pH 7.8, filtered through a 0.2 μm filter. 50 μM DTT was added prior to use each day and then the buffer was stored on ice. […] Human recombinant 6-His tagged cyclophilin D (CypD), prepared by the University of Edinburgh, was used to generate CypD inhibition data. Succinimide-[…]-nitroanilide (SUC-AAPF-pNA) (from Bachem AG, L-1400), 20 mg/ml prepared in 0.5 M LiCl in trifluoroethanol. All readings were taken with an Agilent 8453 Spectrophotometer which consisted of a cuvette holder, stirrer and chiller to maintain a stirred cuvette temperature of 10.0±0.1° C. The temperature was monitored by the use of temperature probe. […] The inhibitor was diluted in 100% DMSO, and then added to the assay to a maximum final concentration of 0.5% DMSO in the assay. […] The absorbance was measured at 330 nm for 300 s or 500 s for blank runs (NOTE: the substrate was added in one quick injection and the measurements started immediately to minimize mixing errors). A first order rate equation was fitted to the absorbance data, for each concentration of inhibitor, to obtain the rate constant (the first 10 to 15 seconds were excluded, as mixing causes errors in this portion of the curve). The catalytic rate was calculated from the enzymatic rate constant minus the background rate constant. An exponential curve was generated using the catalytic rate constants versus the inhibitor concentration to obtain the Ki value for the inhibitor. The Ki value is indicative of the binding affinity between the test compound and cyclophilin A.

calcineurin = biological target: T2, calcineurin (Homo sapiens, UniProt P62937+P63098+Q08209); assay: Calcineurin Phosphatase (CaN) Assay; assay type: biochemical; settings: in the presence of CypA, 1:1 complex of inhibitor with CypA
T2 construct: purchased Enzo Life Sciences BML-AK804
From the text: Calcineurin Phosphatase (CaN) Assay
The calcineurin phosphatase assay is a means for estimating the immunosuppressive potential of a test compound. Calcineurin is a serine-threonine protein phosphatase that on activation dephosphorylates members of the nuclear factor of activated T cells (NFAT), which are important in T lymphocyte activation.
To investigate the immunosuppressive potential of exemplary compounds of Formula I, which are cyclosporin analogs, their ability to inhibit calcineurin activity was measured in the presence and absence of CypA.
The CaN assay kit used is based on a colorimetric assay for measuring calcineurin phosphatase activity, and it is commercially available (Enzo Life Sciences and Calbiochem). Calmodulin is also required for calcineurin activity, and RII phosphopeptide is used as an efficient peptide substrate for calcineurin. […] The detection of free phosphate released is based on the classic Malachite green assay.
Enzo Life Sciences CaN Assay Kit: BML-AK804
For samples ‘without CypA’, a 4-point dilution series of the inhibitor was prepared in duplicate to obtain a final assay concentration of 10, 1, 0.1 and 0.01 μM. For samples ‘with CypA’, a 7-point dilution series was prepared to obtain a 1:1 complex of the inhibitor with CypA; the inhibitor and CypA final assay concentrations of 10, 3.33, 1.11, 0.37, 0.12, 0.04, 0.014 μM were prepared.
using the half area 96 well plates supplied with the kit, 10 μl UPW was added to duplicate wells to provide the non-inhibited control. 10 μl of the inhibitor or the inhibitor/CypA complex was added to the appropriate sample wells. 25 μl of the 2× assay buffer with calmodulin (CaM) was added to all wells, then 5 μl of calcineurin phosphatase (CaN) was added to all wells (40 U per well final concentration) except duplicate ‘no calcineurin blank’ wells to which 5 μL 1× assay buffer was added. The assay plate was placed in an oven at 30° C. for 15 minutes to equilibrate to the reaction temperature. The reaction was started by the addition of 10 μl RII-peptide (0.15 mM final concentration). The reaction was allowed to proceed at 30° C. for a time period in which the reaction is linear for about 60 minutes. The reaction was then terminated by adding 100 μl of the Malachite Green reagent. The color was allowed to develop for 15-30 minutes at room temperature before the absorbance at 620 nm was measured using a plate reader (Molecular Devices—SpectraMax M5). The data were analyzed by subtracting ‘no calcineurin blank’ from all the absorbance readings and plotting the background corrected absorbances against Log10 inhibitor concentration. A sigmoidal-dose response curve was fitted to the data using GraphPad Prism Software.
It exerts its immunosuppressive activity by binding to CypA to form a complex, which then binds to calcineurin and thereby inhibits calcineurin activity.

physchem = settings: 25 °C, pH 7.4, aqueous buffer, kinetic from dmso stock
Experimental: The aqueous solubility of a compound of Formula I in buffer (pH 7.8) was measured by recording the onset of precipitation of the compound as a function of increasing concentration. The onset of precipitation, if it occurred, was detected by an increase in absorbance at 650 nm.
Stock solutions of Control and Test Compounds: 10 mM in 100% DMSO.
10 mM stock solutions of control and test compounds were prepared in 100% DMSO.
Assay buffer (247.5 μl) was placed into a flat bottomed transparent 96-well plate. For blank samples, DMSO (2.5 μl) was added. For test and control samples, 2.5 μl of the appropriate DMSO dilution stocks were added to the appropriate well. All test and control compounds were performed in triplicate.
The plates were sealed with adhesive plate seal and shaken at 250 rpm at 25° C. for 18 h on a plate shaker. After incubation, the plate seals were taken off and any bubbles observed in wells removed. The plates were read on a SpectraMaxM5 with a 5 s pre-shake at 650 nm.
Data files were transferred to the appropriate worksheet and the solubility range of the compounds was calculated from the data.

[2] = biological target: T3, Human recombinant 6-His tagged cyclophilin D (CypD) (Homo sapiens, UniProt P30405); assay: Protease-free PPIase assay, cyclophilin D; assay type: biochemical; settings: human recombinant 6-His CypD, 10 °C, SUC-AAPF-pNA substrate; read-out: CypD Protease-free PPIase Assay Ki
T3 construct: 6-His
Experimental: as §1

T3 sequence (P30405 30-207): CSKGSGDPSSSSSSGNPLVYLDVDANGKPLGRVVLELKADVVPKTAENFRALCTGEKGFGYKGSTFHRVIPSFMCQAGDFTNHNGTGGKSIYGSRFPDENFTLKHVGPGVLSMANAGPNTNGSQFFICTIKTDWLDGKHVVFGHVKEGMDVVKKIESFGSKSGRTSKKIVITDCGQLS
T1 sequence (P62937 whole entry): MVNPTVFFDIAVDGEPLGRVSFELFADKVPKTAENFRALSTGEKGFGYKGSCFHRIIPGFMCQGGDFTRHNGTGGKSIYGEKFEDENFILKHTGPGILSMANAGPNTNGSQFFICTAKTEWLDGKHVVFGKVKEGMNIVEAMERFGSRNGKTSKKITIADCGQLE

pKi [1]	pIC50 (calcineurin)	solubility at 18 h (physchem) [µM]	pKi [2]	Compound
6.70	< 5.00	50 (≈ 61.2 µg/mL)	7.84	CC[C@H]1NC(=O)[C@@H]([C@@H]2OCC[C@H]2C)N(C)C(=O)[C@@H](C(C)C)N(C)C(=O)[C@@H](CC(C)C)N(C)C(=O)[C@@H](CC(C)C)N(C)C(=O)[C@H](C)NC(=O)[C@@H](C)NC(=O)[C@@H](CC(C)C)N(C)C(=O)[C@@H](C(C)C)NC(=O)[C@H](CC(C)C)N(C)C(=O)[C@@H](C(F)F)N(C)C1=O [Compound 5, [(2S)-2-(methylamino)-2-[(2R,3R)-3-methyltetrahydrofuran-2-yl]acetic acid]^1 [(S)-difluoromethyl-Sar]^3 cyclosporin A]
6.40	< 5.00	75 (≈ 89.1 µg/mL)	7.09	CC(C)C[C@@H]1C(=O)N(C)[C@H](CC(C)C)C(=O)N(C)[C@H](C(C)C)C(=O)N(C)[C@H]([C@@H]2OCC[C@H]2C)C(=O)N[C@H](C(C)C)C(=O)N(C)CC(=O)N(C)[C@@H](CC(C)C)C(=O)N[C@H](C(C)C)C(=O)N(C)[C@H](CC(C)C)C(=O)N[C@H](C)C(=O)N[C@@H](C)C(=O)N1C [Compound 7, [(2S)-2-(methylamino)-2-[(2R,3R)-3-methyltetrahydrofuran-2-yl]acetic acid]^1 cyclosporin D]
7.10	< 5.00	25 (≈ 29.7 µg/mL)	7.82	CC[C@H]1NC(=O)[C@H]([C@H]2OCC[C@H]2C)N(C)C(=O)[C@@H](C(C)C)N(C)C(=O)[C@@H](CC(C)C)N(C)C(=O)[C@@H](CC(C)C)N(C)C(=O)[C@H](C)NC(=O)[C@@H](C)NC(=O)[C@@H](CC(C)C)N(C)C(=O)[C@@H](C(C)C)NC(=O)[C@H](CC(C)C)N(C)C(=O)[C@@H](C)N(C)C1=O [Compound 18, [(2S)-2-(methylamino)-2-[(2S,3R)-3-methyltetrahydrofuran-2-yl]acetic acid]^1 [(R)-methyl-Sar]^3 cyclosporin A]
6.39	5.05	> 100	6.89	CC[C@H]1NC(=O)[C@H]([C@@H]2[C@H](C)CCN2C)N(C)C(=O)[C@@H](C(C)C)N(C)C(=O)[C@@H](CC(C)C)N(C)C(=O)[C@@H](CC(C)C)N(C)C(=O)[C@H](C)NC(=O)[C@@H](C)NC(=O)[C@@H](CC(C)C)N(C)C(=O)[C@@H](C(C)C)NC(=O)[C@H](CC(C)C)N(C)C(=O)[C@@H](C)N(C)C1=O [Compound 19, [(2S)-2-[(2S,3R)-1,3-dimethylpyrrolidin-2-yl]-2-(methylamino)acetic acid]^1 [(R)-methyl-Sar]^3 cyclosporin A]
6.83	< 5.00	> 100	7.44	CC[C@H]1NC(=O)[C@H]([C@H]2NCC[C@H]2C)N(C)C(=O)[C@@H](C(C)C)N(C)C(=O)[C@@H](CC(C)C)N(C)C(=O)[C@@H](CC(C)C)N(C)C(=O)[C@H](C)NC(=O)[C@@H](C)NC(=O)[C@@H](CC(C)C)N(C)C(=O)[C@@H](C(C)C)NC(=O)[C@H](CC(C)C)N(C)C(=O)[C@@H](C)N(C)C1=O [Compound 20, [(2S)-2-(methylamino)-2-[(2S,3R)-3-methylpyrrolidin-2-yl]acetic acid]^1 [(R)-methyl-Sar]^3 cyclosporin A]

Further lines, the compound ahead of its results:

Compound	pKi [1]	pIC50 (calcineurin)	solubility at 18 h (physchem) [µM]	pKi [2]
CC[C@H]1NC(=O)[C@@H]([C@@H]2OCC[C@H]2C)N(C)C(=O)[C@@H](C(C)C)N(C)C(=O)[C@@H](CC(C)C)N(C)C(=O)[C@@H](CC(C)C)N(C)C(=O)[C@H](C)NC(=O)[C@@H](C)NC(=O)[C@@H](CC(C)C)N(C)C(=O)[C@@H](C(C)C)NC(=O)[C@H](CC(C)C)N(C)C(=O)[C@@H](C)N(C)C1=O [Compound 3, [(2S)-2-(methylamino)-2-[(2R,3R)-3-methyltetrahydrofuran-2-yl]acetic acid]^1 [(R)-methyl-Sar]^3 cyclosporin A]	7.02	< 5.00	> 100	8.36
CC(C)C[C@@H]1C(=O)N(C)[C@H](CC(C)C)C(=O)N(C)[C@H](C(C)C)C(=O)N(C)[C@H]([C@@H]2OCC[C@H]2C)C(=O)N[C@H](C(C)C)C(=O)N(C)[C@H](C)C(=O)N(C)[C@@H](CC(C)C)C(=O)N[C@H](C(C)C)C(=O)N(C)[C@H](CC(C)C)C(=O)N[C@H](C)C(=O)N[C@@H](C)C(=O)N1C [Compound 6, [(2S)-2-(methylamino)-2-[(2R,3R)-3-methyltetrahydrofuran-2-yl]acetic acid]^1 [(R)-methyl-Sar]^3 cyclosporin D] (cyclo(A[dNMeL][dNMeL][dNMeV][X1][dV][dNMeA][NMeL][dV][dNMeL][dA]))	8.25	< 5.00	50 (≈ 60.1 µg/mL)	8.72
CC(C)C[C@@H]1C(=O)N(C)[C@H](CC(C)C)C(=O)N(C)[C@H](C(C)C)C(=O)N(C)[C@H]([C@@H]2OCC[C@H]2C)C(=O)N[C@H]([C@@H](C)O)C(=O)N(C)CC(=O)N(C)[C@@H](CC(C)C)C(=O)N[C@H](C(C)C)C(=O)N(C)[C@H](CC(C)C)C(=O)N[C@H](C)C(=O)N[C@@H](C)C(=O)N1C [Compound 8, [(2S)-2-(methylamino)-2-[(2R,3R)-3-methyltetrahydrofuran-2-yl]acetic acid]^1 cyclosporin C]	5.82	< 5.00	> 100	6.98
CC(C)C[C@@H]1C(=O)N(C)[C@H](CC(C)C)C(=O)N(C)[C@H](C(C)C)C(=O)N(C)[C@H]([C@@H]2OCC[C@H]2C)C(=O)N[C@H](C)C(=O)N(C)[C@H](C)C(=O)N(C)[C@@H](CC(C)C)C(=O)N[C@H](C(C)C)C(=O)N(C)[C@H](CC(C)C)C(=O)N[C@H](C)C(=O)N[C@@H](C)C(=O)N1C [Compound 10, [(2S)-2-(methylamino)-2-[(2R,3R)-3-methyltetrahydrofuran-2-yl]acetic acid]^1 [(R)-methyl-Sar]^3 cyclosporin B] (cyclo(A[dNMeL][dNMeL][dNMeV][X1][dA][dNMeA][NMeL][dV][dNMeL][dA]))	5.70	< 5.00	> 100	6.17
CC(C)C[C@@H]1C(=O)N(C)[C@H](CC(C)C)C(=O)N(C)[C@H](C(C)C)C(=O)N(C)[C@H]([C@@H]2OC(O)C[C@H]2C)C(=O)N[C@H](C(C)C)C(=O)N(C)[C@H](C)C(=O)N(C)[C@@H](CC(C)C)C(=O)N[C@H](C(C)C)C(=O)N(C)[C@H](CC(C)C)C(=O)N[C@H](C)C(=O)N[C@@H](C)C(=O)N1C (stereo partly drawn) [Compound 14, [(2S)-2-[(2R,3R)-5-Hydroxy-3-methyl-tetrahydrofuran-2-yl]-2-(methylamino)acetic acid]^1 [(R)-methyl-Sar]^3 cyclosporin D] (cyclo(A[dNMeL][dNMeL][dNMeV][X2][dV][dNMeA][NMeL][dV][dNMeL][dA]))	7.69	< 5.00	> 100	8.08
